{"source": "patent US20180265867A1", "about": "“NUCLEIC ACID MOLECULES WITH ENHANCED ACTIVITY” (priority 2015, published 2018)", "format_in_all_cases": "cell-based, human", "key": {"[1]": {"system": "CTNNB1 (β-catenin)", "test": "CTNNB1 knockdown time course in MG63 cells by qRT-PCR", "conditions": "MG63, 50 nM, 24, 48 and 72 h; β-catenin cpRNA without transfection reagent vs canonical siRNA with transfection reagent", "procedure": "At 70% confluency, a day prior to transfection, the cells were seeded at a density of 35 000 cells in a 24-well cell culture plate to achieve 60-80% confluence at the day of transfection. Cell penetrating siRNAs (cpRNAs) of different lengths were transfected at 50 nM concentrations with Magnet Assisted Transfection (MATra-si) reagent for siRNAs (IBA GmbH, Göttingen, Germany) according to the manufacturers' protocols. Briefly, the siRNA was mixed with MATra-si reagent composed of supermagnetic ironoxide nanoparticles and incubated for 20 min. A complex was formed which was added to the cells to be transfected. A strong magnetic force was applied beneath the cells for 15 min. This forced the complex to be drawn into the cells by the magnetic field, and as a result the siRNA was delivered directly into the cytosol. […]\ncDNA synthesis was performed in triplicate using total RNA reverse transcribed using High Capacity cDNA reverse transcription kit (Applied Biosystems, USA), with non-template control added to ensure a lack of signal in assay background. […] Data from samples with a Ct value equal to or below 35 were further analyzed. Samples were normalized relative to endogenous control and differences in cycle number thresholds were calculated using comparative quantitation 2^−ΔΔcT method (also called the ΔΔCT method), commonly used for analyzing siRNA induced gene knockdown efficiency. […]"}, "[2]": {"system": "GAPDH", "test": "Western blot of GAPDH protein in MG63 cells", "conditions": "MG63, 50 nM, at 48 h, no transfection reagent", "procedure": "(§1) After 48 hours of transfection, cells were washed twice with ice-cold PBS and lysed in RIPA lysis buffer (50 mM Tris-HCl, pH 8.0, with 150 mM NaCl, 1.0% Igepal CA-630 (NP-40), 0.5% sodiumdeoxycholate, 0.1% SDS, and 1.0% protease inhibitor cocktail from SIGMA-ALDRICH®). Lysates were incubated on ice for 30 minutes and centrifuged at 10,000 rpm for 20 minutes to collect supernatant. Coomassie Plus—The Better Bradford Assay™ Reagent (Thermo Scientific) was used to measure protein concentrations. Thereafter, 20 μg of soluble protein was separated by SDS-PAGE and transferred to polyvinylidene difluoride membrane (Millipore). Primary antibodies against GAPDH (1:1000 dilution), β-catenin (1:1000 dilution; SIGMA-ALDRICH®), β-actin (1:1000; Cell Signaling Technology®) were used to probe the protein bands. Anti-Rabbit-HRP conjugated secondary antibodies (1:3000 dilution; R&D Systems®) were used to detect the primary antibodies, followed by the target protein visualization with EMD Millipore Immobilon™ Western Chemiluminescent HRP Substrate (ECL). […]\n(§2) To further validate our results, we tested the gene knockdown efficiency of another gene CTNNB1 (β-catenin), which is expressed in MG63 cells. We performed a time course experiment (24, 48 and 72 h) by targeting CTNNB1 and GAPDH in MG63 cells and quantified the mRNA and protein levels using qRT-PCR and Western blot experiments respectively (FIG. 8)."}, "[3]": {"system": "β-catenin", "test": "Western blot of β-catenin protein in MG63 cells", "conditions": "MG63, 50 nM, at 48 h, β-catenin cpRNA, no transfection reagent", "procedure": "as §1, §2"}}, "note": "d = 2'-deoxy (DNA); r = 2'-OH (RNA)"}
{"substance": "dT5: GAPDH siRNA, sense SEQ ID NO: 3 with dT5 3′-overhang, antisense SEQ ID NO: 2 with dT2 (sense CCGAGCCACAUCGCUCAGATTTTT; antisense UCUGAGCGAUGUGGCUCGGTT; sense: sugars from the 5' end r19 d5, backbone not given here; antisense: sugars from the 5' end r19 d2, backbone not given here)", "values": [{"measurement": "CTNNB1 mRNA knockdown efficiency over time", "setting": "[1]", "value": "higher gene knockdown efficiency for over 72 hrs"}, {"measurement": "GAPDH protein level", "setting": "[2]", "value": "complete knockout"}, {"measurement": "CTNNB1 protein level", "setting": "[3]", "value": "complete knockout"}]}
